Results taken from patent US20100278835A1, “NOVEL COMPOUNDS 660” (ASTRAZENECA UK LIMITED, priority 2009, published 2010).

System: RSV RSS strain
Test: ELISA assay of antiviral activity against RSV (reduction in RSV protein expression)
Format: cell-based
Conditions: Hep-2 cells infected with RSV RSS strain, multiplicity of infection 0.02, 3 days, concentration required to inhibit RSV protein expression by 50%
Description: The antiviral activity of these compounds against RSV was determined in an ELISA assay. […] ELISA assays were set up by seeding 96-well plates with 5×10^3 Hep-2 cells per well in 100 μl DMEM containing 10% FBS for 24 h. Compound dilutions were prepared in 0.5% DMSO and 50 μl/well was added to the assay plates, the plates were incubated at 37° C. in 5% CO2 for one hour. Cells were infected with 50 μl/well RSV RSS strain at a multiplicity of infection of 0.02 and were incubated at 37° C. in 5% CO2 for 3 days. Cells were then fixed and permeabilised with 75%/25% methanol acetone and blocked with 2% Marvel™, 0.05% Tween for one hour. Plates were then incubated in the presence of a 1:4000 dilution of […] polyclonal antibody (Millipore, AB1128) followed by a 1:1000 dilution of rabbit anti-goat, horseradish peroxidase (DAKO, PO449) labelled secondary antibody. The plates were developed with O-phenylenediamine in the presence of hydrogen peroxide. The antiviral activity of the compounds is presented as an IC50, the concentration required to inhibit RSV protein expression by 50%.

[1] = human respiratory syncytial virus, 72 h

1-[[5-[(3-aminopropylamino)methyl]-1-isopentyl-benzimidazol-2-yl]methyl]-3-cyclopropyl-4H-quinazolin-2-one [Example 32]
IC50: 32 nM

CC(C)CCn1c(CN2C(=O)N(C(C)(C)C)Cc3ccccc32)nc2cc(CN)ccc21 [Example 8, 1-[[5-(aminomethyl)-1-isopentyl-benzimidazol-2-yl]methyl]-3-tert-butyl-4H-quinazolin-2-one]
IC50 [1]: 16.7 nM

CC(C)CCn1c(CN2C(=O)N(Cc3ccccc3)Cc3ccccc32)nc2cc(CN)ccc21 [Example 10, 1-[[5-(aminomethyl)-1-isopentyl-benzimidazol-2-yl]methyl]-3-benzyl-4H-quinazolin-2-one]
IC50 [1]: 15.7 nM

CC(C)CCn1c(CN2C(=O)N(C3CC3)C(C)c3ccccc32)nc2cc(C(N)=NO)ccc21 (stereo not drawn) [Example 39, 2-[(3-cyclopropyl-4-methyl-2-oxo-4H-quinazolin-1-yl)methyl]-N′-hydroxy-1-isopentyl-benzimidazole-5-carboxamidine]
IC50 [1]: 400 nM

CC(C)CCn1c(CN2C(=O)N(CC3CC3)Cc3ccccc32)nc2cc(CN)ccc21 [Example 16, 1-[[5-(aminomethyl)-1-isopentyl-benzimidazol-2-yl]methyl]-3-(cyclopropylmethyl)-4H-quinazolin-2-one]
IC50 [1]: 5.9 nM

CC(C)CCn1c(CN2C(=O)N(C3CC3)C(C)c3ccccc32)nc2cc(C(=N)N)ccc21 (stereo not drawn) [Example 36, 2-[(3-cyclopropyl-4-methyl-2-oxo-4H-quinazolin-l-yl)methyl]-1-isopentyl-benzimidazole-5-carboxamidine]
IC50: 8.4 nM

1-[[5-(aminomethyl)-1-(4-hydroxybutyl)benzimidazol-2-yl]methyl]-3-cyclopropyl-4H-quinazolin-2-one [Example 25]
IC50: 1.5 nM

1-[[5-[(3-aminopropylamino)methyl]-1-isopentyl-benzimidazol-2-yl]methyl]-3-methyl-4H-quinazolin-2-one [Example 31]
IC50: 23 nM

CC(C)CCn1c(CN2C(=O)N(CCc3ccccc3)Cc3ccccc32)nc2cc(CN)ccc21 [Example 11, 1-[[5-(aminomethyl)-1-isopentyl-benzimidazol-2-yl]methyl]-3-phenethyl-4H-quinazolin-2-one]
IC50 [1]: 18.8 nM

CC(C)CCn1c(CN2C(=O)N(C3CC3)C(C)(C)c3ccccc32)nc2cc(/C(N)=N/O)ccc21 [Example 40, 2-[(3-cyclopropyl-4,4-dimethyl-2-oxo-quinazolin-1-yl)methyl]-N′-hydroxy-1-isopentyl-benzimidazole-5-carboxamidine]
IC50 [1]: > 1000 nM

1-[[5-[(3-aminopropylamino)methyl]-1-isopentyl-benzimidazol-2-yl]methyl]-3-(2-methoxyethyl)-4H-quinazolin-2-one [Example 33]
IC50: 243 nM

CC1(C)c2ccccc2N(Cc2nc3cc(C(=N)N)ccc3n2CCCC(F)(F)F)C(=O)N1C1CC1 [Example 43, 2-[(3-cyclopropyl-4,4-dimethyl-2-oxo-quinazolin-1-yl)methyl]-1-(4,4,4-trifluorobutyl)benzimidazole-5-carboxamidine]
IC50 [1]: 18 nM

CC(C)CCN1Cc2ccccc2N(Cc2nc3ccccc3n2CCC(C)C)C1=O [Example 2, 3-isopentyl-1-[(1-isopentylbenzimidazol-2-yl)methyl]-4H-quinazolin-2-one]
IC50 [1]: > 1000 nM

1-[[5-(aminomethyl)-1-(4-hydroxybutyl)benzimidazol-2-yl]methyl]-3-(cyclohexylmethyl)-4H-quinazolin-2-one [Example 27]
IC50: 94 nM

CC1(C)c2ccccc2N(Cc2nc3cc(/C(N)=N/O)ccc3n2CCCC(F)(F)F)C(=O)N1C1CC1 [Example 45, 2-[(3-cyclopropyl-4,4-dimethyl-2-oxo-quinazolin-1-yl)methyl]-N′-hydroxy-1-(4,4,4-trifluorobutyl)benzimidazole-5-carboxamidine]
IC50 [1]: > 1000 nM

2-[(3-cyclopropyl-2-oxo-4H-quinazolin-1-yl)methyl]-N′-hydroxy-1-isopentyl-benzimidazole-5-carboxamidine [Example 38]
IC50: 88.9 nM

CC(C)CCn1c(CN2C(=O)N(C3CCCC3)Cc3ccccc32)nc2cc(CN)ccc21 [Example 9, 1-[[5-(aminomethyl)-1-isopentyl-benzimidazol-2-yl]methyl]-3-cyclopentyl-4H-quinazolin-2-one]
IC50 [1]: 1.3 nM

CC(C)CCn1c(CN2C(=O)N(C3CC3)C(C)c3ccccc32)nc2ccccc21 (stereo not drawn) [Example 3, 3-cyclopropyl-1-[(1-isopentylbenzimidazol-2-yl)methyl]-4-methyl-4H-quinazolin-2-one]
IC50 [1]: 1300 nM

CC(C)CCn1c(CN2C(=O)N(C3CC3)C(C)(C)c3ccccc32)nc2cc(C(=N)N)ccc21 [Example 37, 2-[(3-cyclopropyl-4,4-dimethyl-2-oxo-quinazolin-1-yl)methyl]-1-isopentyl-benzimidazole-5-carboxamidine]
IC50 [1]: 42 nM

CN1Cc2ccccc2N(Cc2nc3cc(CNCCCN)ccc3n2CCCCO)C1=O [Example 34, 1-[[5-[(3-Aminopropylamino)methyl]-1-(4-hydroxybutyl)benzimidazole-2-yl]methyl]-3-methyl-4H-quinazolin-2-one]
IC50 [1]: 84 nM

CC(C)CCn1c(CN2C(=O)N(CC3CCCCC3)Cc3ccccc32)nc2cc(CN)ccc21 [Example 19, 1-[[5-(aminomethyl)-1-isopentyl-benzimidazol-2-yl]methyl]-3-(cyclohexylmethyl)-4H-quinazolin-2-one]
IC50: 2890 nM

CC(C)CCn1c(CN2C(=O)N(CC(C)C)Cc3ccccc32)nc2cc(CN)ccc21 [Example 15, 1-[[5-(aminomethyl)-1-isopentyl-benzimidazol-2-yl]methyl]-3-isobutyl-4H-quinazolin-2-one]
IC50 [1]: 1.9 nM

CC(C)CCn1c(CN2C(=O)N(C3CC3)Cc3cccnc32)nc2cc(CN)ccc21 [Example 12, 1-[[5-(aminomethyl)-1-isopentyl-benzimidazol-2-yl]methyl]-3-cyclopropyl-4H-pyrido[2,3-d]pyrimidin-2-one]
IC50 [1]: 53.1 nM

CC1c2ccccc2N(Cc2nc3cc(C(=N)N)ccc3n2CCCC(F)(F)F)C(=O)N1C1CC1 (stereo not drawn) [Example 42, 2-[(3-cyclopropyl-4-methyl-2-oxo-4H-quinazolin-1-yl)methyl]-1-(4,4,4-trifluorobutyl)benzimidazole-5-carboxamidine]
IC50 [1]: 11.8 nM

CC1(C)c2ccccc2N(Cc2nc3cc(CN)ccc3n2CCCC(F)(F)F)C(=O)N1C1CC1 [Example 30, 1-[[5-(aminomethyl)-1-(4,4,4-trifluorobutyl)benzimidazol-2-yl]methyl]-3-cyclopropyl-4,4-dimethyl-quinazolin-2-one]
IC50 [1]: 11 nM

CCCN1Cc2ccccc2N(Cc2nc3cc(CN)ccc3n2CCC(C)C)C1=O [Example 6, 1-[[5-(aminomethyl)-1-isopentyl-benzimidazol-2-yl]methyl]-3-propyl-4H-quinazolin-2-one]
IC50 [1]: 1.2 nM

CC(C)CCn1c(CN2C(=O)N(CCCN3CCCC3)Cc3ccccc32)nc2cc(CN)ccc21 [Example 17, 1-[[5-(aminomethyl)-1-isopentyl-benzimidazol-2-yl]methyl]-3-(3-pyrrolidin-1-ylpropyl)-4H-quinazolin-2-one]
IC50: 13.7 nM

CC1c2ccccc2N(Cc2nc3cc(C(N)=NO)ccc3n2CCCC(F)(F)F)C(=O)N1C1CC1 (stereo not drawn) [Example 44, 2-[(3-cyclopropyl-4-methyl-2-oxo-4H-quinazolin-1-yl)methyl]-N′-hydroxy-1-(4,4,4-trifluorobutyl)benzimidazole-5-carboxamidine]
IC50 [1]: 229 nM

1-[[5-(aminomethyl)-1-(4-hydroxybutyl)benzimidazol-2-yl]methyl]-3-(2-methoxyethyl)-4H-quinazolin-2-one [Example 26]
IC50: 0.4 nM

CSCCN1Cc2ccccc2N(Cc2nc3cc(CN)ccc3n2CCC(C)C)C1=O [Example 18, 1-[[5-(aminomethyl)-1-isopentyl-benzimidazol-2-yl]methyl]-3-(2-methylsulfanylethyl)-4H-quinazolin-2-one]
IC50 [1]: 4 nM

CC(C)CCn1c(CN2C(=O)N(C3CC3)Cc3ccccc32)nc2ccccc21 [Example 1]
IC50 [1]: 1890 nM

CC1c2ccccc2N(Cc2nc3cc(CN)ccc3n2CCCC(F)(F)F)C(=O)N1C1CC1 (stereo not drawn) [Example 29, 1-[[5-(aminomethyl)-1-(4,4,4-trifluorobutyl)benzimidazol-2-yl]methyl]-3-cyclopropyl-4-methyl-4H-quinazolin-2-one]
IC50 [1]: 3.8 nM

CC(C)CCn1c(CN2C(=O)N(C3CC3)Cc3c2cccc3C(F)(F)F)nc2cc(CN)ccc21 [Example 22, 1-[[5-(aminomethyl)-1-isopentyl-benzimidazol-2-yl]methyl]-3-cyclopropyl-5-(trifluoromethyl)-4H-quinazolin-2-one]
IC50 [1]: 8.9 nM

CC(C)CCN1Cc2ccccc2N(Cc2nc3cc(CN)ccc3n2CCC(C)C)C1=O [Example 14, 1-[[5-(aminomethyl)-1-isopentyl-benzimidazol-2-yl]methyl]-3-isopentyl-4H-quinazolin-2-one]
IC50: 2.1 nM

N=C(N)c1ccc2c(c1)nc(CN1C(=O)N(C3CC3)Cc3ccccc31)n2CCCC(F)(F)F [Example 41, 2-[(3-cyclopropyl-2-oxo-4H-quinazolin-1-yl)methyl]-1-(4,4,4-trifluorobutyl)benzimidazole-5-carboxamidine]
IC50 [1]: 1.6 nM

3-cyclopropyl-1-[(1-isopentylbenzimidazol-2-yl)methyl]-4,4-dimethyl-quinazolin-2-one [Example 4]
IC50: 1420 nM
